Measurements: patent EP2364976B1, “S1P receptor modulating compounds and use thereof” (EPIX Pharmaceuticals, Inc., priority 2007, dated 2007)
Where “and” joins values, the source holds several entries; their conditions need not be identical. Equal values may be shown once.

These compounds were tested against T1, hS1P1 (Homo sapiens, UniProt P21453) (assay: hS1P1 EC50 (S1P receptor Ca2+ flux protocol, FLIPR, CHO K1 Gqi5 cells)). Details: several values per compound = repeat determinations as printed.
T1 construct: expressed in transfected cells
Assay type: cell-based
Method: S1P receptor activity may also be measured by an SIP receptor (e.g., hS1P1, hS1P3, rS1P1, rS1P3 and parental cell) Ca^2+ Flux protocol as described below: • 1. Material • a. FLIPR buffer: 1x HBSS; 10mM HEPES • b. Cell growth media: • i. human and rat S1P1 and S1P3: F12-Ham's media; 10% FBS (qualified); 1x Pen/Strep/Glu; 300ug/mL Hygromycin; 400ug/mL Geneticin ii. Parental cell: human and rat S1P and S1P3: F12-Ham's media; 10% FBS (qualified); 1x Pen/Strep/Glu; 300ug/mL Hygromycin; • c. Cell seeding media; F12-Ham's media; 10% FBS (Charcoal/dextran stripped); 1x Pen/Strep/Glu; • d. Cell dissociation buffer: Versene from Invitrogen • e. Agonist (SIP) dissolving buffer: 0.4% (w/v) fatty-acid free BSA (Sigma # A8806) in FLIPR buffer • f. FLIPR dye: BD PBX Calcium assay kit; Cat#641077 is composed of Calcium indicator (Cat#850000) and 100x PBX signal enhancer (cat#850001). The 100x PBX signal enhancer is diluted into FLIPR buffer 1:100 and the calcium indicator is then added at 1:1000 ratio. • g. Cell plates (96-well): Greiner Cat#655090 • h. Compound plates (96-well): Costar #3365 • i. S1P stock solution preparation: S1P is purchased from CalBioChem (Catalog # 970471; 1mg vial; custom prep using methanol, & nitrogen gas drying inside glass vial; Storage @ -20°C). Dissolve 1 vial of SIP into 26.4ml of agonist dissolving buffer in a 50ml centrifuge tube; Remove label from bottle of SIP, open and drop entire bottle into tube. Sonicate at 37° for ½ hour. Clear solution of 100µM will result. This stock solution is aliquoted and stored at -80C • 2. Cell line maintenance • a. V5 tags were added at the N-terminus of hS1P1, hS1P3, rS1P1 and rS1P3. All four genes were transfected into CHO K1 cells which stably express Gqi5. • b. hS1P1 and hS1P3 were established as stable clones and rS1P1 and rS1P3 were sorted by anti V5 tag and established as stable pools after sorting. • c. Parental cell line CHO/K1 Gqi5 is used as the control. • d. All the cells are maintained in cell growth media and splitted twice a week using Versene. • e. All the cell lines are used under passage 30. • 3. Assay protocol • a. Cell seeding: Cells are lifted from the flask by Versene and seeded in cell plates at 50K/well in cell seeding media. Cells are grown overnight at 37 degree. • b. Cell loading: Cell seeding media is discarded. Cells are loaded with 50ul of FLIPR dye at RT for 90 min. Signal is stable for up to 5 h after dye loading. • c. Agonist (S1P) preparation: Frozen stock of S1P is thawed out and sonicated at 37c for 30 minutes every time before use. The stock is then diluted into FLIPR buffer at proper concentration. • d. Compound preparation: Compounds are dissolved in DMSO. A 3x, 10 point dilution of the compounds are carried out in DMSO. Then the compounds are diluted into assay buffer133x so that the DMSO concentration is 0.75%. • e. Activity measurement: The fluorescence signal change of the cells upon compound addition is monitored in FLIPRtetra. 25ul of compound is transferred into the cell plates (50ul of FLIPR dye; DMSO concentration: 0.25%). Signal is recorded for 90sec after compound addition. Then 50ul of 500nM SIP is added in the cell plate, and signal is recorded for 90 seconds upon addition. • 4. Data analysis • a. Peak value is calculated for each compound/S1P addition • b. The peak value of S1P at 200nM is used as high control (100%), and the peak value of buffer only is used as low control (0%). • c. Data is normalized against high and low controls using the following equation: POC_S = 100*(RAW-LO)/(HI-LO) [formula] • d. Peak value is plotted against the concentration of compound. • e. Curve is fitted using the 4 parameter fit: Y = (A+(B/(1+(((x/C))^(∧)D)))) [formula] where: Y is POC_S (or POC) • X is compound concentration • A is the minimum (EC50min or IC50min) • B is the maxmum (EC50max or IC50max) • C is the inflection point (EC50IP or IC50IP) • D is the hill slope (EC50 slope or IC50 slope).

T1 sequence (P21453 whole entry): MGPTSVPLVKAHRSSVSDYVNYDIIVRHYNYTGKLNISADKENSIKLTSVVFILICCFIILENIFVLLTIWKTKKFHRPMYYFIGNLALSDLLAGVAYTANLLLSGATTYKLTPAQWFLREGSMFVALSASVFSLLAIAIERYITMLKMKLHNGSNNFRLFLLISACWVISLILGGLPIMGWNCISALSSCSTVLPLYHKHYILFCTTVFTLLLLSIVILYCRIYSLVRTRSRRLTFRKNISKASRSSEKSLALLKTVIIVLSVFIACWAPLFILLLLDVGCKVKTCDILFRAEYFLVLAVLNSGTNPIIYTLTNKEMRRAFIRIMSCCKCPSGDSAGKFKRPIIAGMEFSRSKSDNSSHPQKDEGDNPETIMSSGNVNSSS

SMILES	EC50
O=C(O)CCN1CCc2cc(-c3cc4cc(Cc5ccccc5)ccc4o3)ccc2C1 [Reference Compound 29, 3-(6-(5-benzylbenzofuran-2-yl)-3,4-dihydroisoquinolin-2(1H)-yl)propanoic acid]	160 nM and 261 nM
O=C(O)C1CN(Cc2ccc(-c3cc4cc(C5CCCC5)ccc4o3)cc2)C1 [Reference Compound 30, 1-(4-(5-cyclopentylbenzofuran-2-yl)benzyl)azetidine-3-carboxylic acid]	210 nM
O=C(O)C1CN(Cc2ccc(-c3cc4cc(N5CCCCC5)ccc4o3)c(F)c2)C1 [Reference Compound 31, 1-(3-fluoro-4-(5-(piperidin-1-yl)benzofuran-2-yl)benzyl)azetidine-3-carboxylic acid]	860 nM and 307 nM
O=C(O)C1CN(Cc2ccc(-c3cc4cc(Cc5ccccc5)ccc4o3)nc2)C1 [Reference Compound 32, 1-((6-(5-benzylbenzofuran-2-yl)pyridin-3-yl)methyl)azetidine-3-carboxylic acid]	2600 nM and 516 nM
COc1cc(CN2CC(C(=O)O)C2)ccc1-c1cc2cc(Cc3ccccc3)ccc2o1 [Reference Compound 33, 1-((4-(5-benzylbenzofuran-2-yl)-3-methoxyphenyl)methyl)azetidine-3-carboxylic acid]	1000 nM and 1900 nM and 196 nM
O=C(O)C1CN(Cc2ccc(-c3cc4cc(N5CCCCC5)ccc4o3)cc2)C1 [Reference Compound 34, 1-(4-(5-(piperidin-1-yl)benzofuran-2-yl)benzyl)azetidine-3-carboxylic acid]	1500 nM
O=C(O)C1CN(Cc2ccc(-c3cc4cc(Cc5ccccc5)ccc4o3)c(Cl)c2)C1 [Reference Compound 36, 1-((4-(5-benzylbenzofuran-2-yl)-3-chlorophenyl)methyl)azetidine-3-carboxylic acid]	199 nM
O=C(O)CCN1CCc2cc(-c3cc4cc(C5CCCC5)ccc4o3)ccc2C1 [Reference Compound 37, 3-(6-(5-cyclopentylbenzofuran-2-yl)-3,4-dihydroisoquinolin-2(1H)-yl)propanoic acid]	4170 nM
O=C(O)C1CN(Cc2ccc(-c3cc4cc(OCC5CCCC5)ccc4o3)c(F)c2)C1 [Reference Compound 38, 1-(4-(5-(cyclopentylmethoxy)benzofuran-2-yl)-3-fluorobenzyl)azetidine-3-carboxylic acid]	803 nM
Cc1cc(CN2CC(C(=O)O)C2)ccc1-c1cc2cc(Cc3ccccc3)ccc2o1 [Reference Compound 43, 1-((4-(5-Benzylbenzofuran-2-yl)-3-methylphenyl)methyl)azetidine-3-carboxylic acid]	241 nM
CCCCOc1ccc2oc(-c3ccc4c(c3)CCN(CCC(=O)O)C4)cc2c1 [Reference Compound 44, 3-(6-(5-butoxybenzofuran-2-yl)-3,4-dihydroisoquinolin-2(1H)-yl)propanoic acid]	4440 nM
O=C(O)CCNC1Cc2ccc(-c3cc4cc(Cc5ccccc5)ccc4o3)cc2C1 (centres unmarked) [Reference Compound 45, 3-(5-(5-benzylbenzofuran-2-yl)-2,3-dihydro-1H-inden-2-ylamino)-propanoic acid]	807 nM
COc1cc(CN2CC(C(=O)O)C2)ccc1-c1cc2cc(C3CCCC3)ccc2o1 [Reference Compound 47, 1-((4-(5-cyclopentylbenzofuran-2-yl)-3-methoxyphenyl)methyl)azetidine-3-carboxylic acid]	1070 nM
O=C(O)C1CN(Cc2cc(F)c(-c3cc4cc(Cc5ccccc5)ccc4o3)c(F)c2)C1 [Reference Compound 48, 1-((4-(5-Benzylbenzofuran-2-yl)-3,5-difluorophenyl)methyl)azetidine-3-carboxylic acid]	89 nM
O=C(O)C1CN(Cc2ccc(-c3cc4cc(OCC5CC5)ccc4o3)c(F)c2)C1 [Reference Compound 49]	109 nM
CCCCOc1ccc2oc(-c3ccc(CN4CC(C(=O)O)C4)cc3Cl)cc2c1 [Reference Compound 50, 1-((4-(5-Butoxybenzofuran-2-yl)-3-chlorophenyl)methyl)azetidine-3-carboxylic acid]	266 nM
O=C(O)C1CN(Cc2ccc(-c3cc4cc(C5CCCC5)ccc4o3)c(Cl)c2)C1 [Reference Compound 51, 1-((3-chloro-4-(5-cyclopentylbenzofuran-2-yl)phenyl)methyl)azetidine-3-carboxylic acid]	558 nM
O=C(O)C1CN(Cc2ccc(-c3cc4cc(N5CCOCC5)ccc4o3)c(F)c2)C1 [Reference Compound 53, 1-((3-fluoro-4-(5-morpholinobenzofuran-2-yl)phenyl)methyl)azetidine-3-carboxylic acid]	2090 nM
O=C(O)C1CN(Cc2ccc(-c3cc4cc(Cc5ccccc5)ccc4o3)c(F)c2)CCO1 (centres unmarked) [Reference Compound 54, 4-((4-(5-benzylbenzofuran-2-yl)-3-fluorophenyl)methyl)morpholine-2-carboxylic acid]	1860 nM
O=C(O)C1CN(Cc2ccc(-c3cc4cc(OCC5CCCC5)ccc4o3)c(F)c2)CCO1 (centres unmarked) [Reference Compound 55, 4-((4-(5-(cyclopentylmethoxy)benzofuran-2-yl)-3-fluorophenyl)methyl)morpholine-2-carboxylic acid]	> 25000 nM
O=C(O)CCN1CCc2cc(-c3cc4cc(OCC5CCCC5)ccc4o3)ccc2C1 [Reference Compound 57, 3-(6-(5-(cyclopentylmethoxy)benzofuran-2-yl)-3,4-dihydroisoquinolin.2(1H)-yl)propanoic acid]	877 nM
O=C(O)CCNCc1ccc(-c2cc3cc(C4CCCC4)ccc3o2)c(F)c1 [Reference Compound 58, 3-(4-(5-cyclopentylbenzofuran-2-yl)-3-fluorobenzylamino)propanoic acid]	1070 nM
O=C(O)C1CN(Cc2ccc(-c3cc4cc(C5CCOCC5)ccc4o3)c(F)c2)C1 [Reference Compound 61]	207 nM
O=C(O)[C@@H]1CCCN(Cc2ccc(-c3cc4cc(Cc5ccccc5)ccc4o3)c(F)c2)C1 [Reference Compound 62, (3R)-1-((4-(5-Benzylbenzofuran-2-yl)-3-fluorophenyl)methyl)piperidine-3-carboxylic acid]	5450 nM
O=C(O)[C@H]1CCCN(Cc2ccc(-c3cc4cc(Cc5ccccc5)ccc4o3)c(F)c2)C1 [Reference Compound 63, (3S)-1-((4-(5-Benzylbenzofuran-2-yl)-3-fluorophenyl)methyl)piperidine-3-carboxylic acid]	3340 nM
O=C(O)C1CN(Cc2ccc(-c3cc4cc(Sc5ccccc5)ccc4o3)c(F)c2)C1 [Reference Compound 64]	142 nM
O=C(O)C1CN(Cc2ccc(-c3cc4cc([S+]([O-])c5ccccc5)ccc4o3)c(F)c2)C1 (centres unmarked) [Reference Compound 65]	67 nM
O=C(O)C1CN(Cc2ccc(-c3cc4cc(COCC5CC5)ccc4o3)c(F)c2)C1 [Reference Compound 66]	75 nM
O=C(O)C1CN(Cc2ccc(-c3cc4cc(COC5CCC5)ccc4o3)c(F)c2)C1 [Reference Compound 67, 1-(4-(5-(Cyclobutoxymethyl)benzofuran-2-yl)-3-fluoro-benzyl)azetidine-3-carboxylic acid]	25 nM
